In US20110245284A1, “Alkoxy- and Alkylthio-Substituted Anilinopyrimidines” (Bayer CropScience AG, priority 2008, published 2011):

Key:
[1] = logP by LC-MS on reversed-phase columns (C 18), method [b], acidic range pH 2.7; type: physicochemical; details: for chromatographic logP: pH 2.7, log p
Protocol: (§1) The logP values were determined in accordance with EEC Directive 79/831 Annex V.A8 by HPLC (High Performance Liquid Chromatography) on reversed-phase columns (C 18), using the methods below:
[b] The LC-MS determination in the acidic range is carried out at pH 2.7 using the mobile phases 0.1% aqueous formic acid and acetonitrile (contains 0.1% formic acid), linear gradient from 10% acetonitrile to 95% acetonitrile.

[2] = tested on: Leptosphaeria nodorum; assay: Leptosphaeria nodorum test (wheat) / protective; type: in vivo; details: Parastagonospora nodorum, active compound concentration 500 ppm, evaluation 7-9 days after inoculation, read-out: efficacy
Protocol: Thereafter, the plants are placed in a greenhouse at 90% relative atmospheric humidity and a temperature of 22° C.

[3] = logP by LC-MS on reversed-phase columns (C 18), method [c], neutral range pH 7.8; type: physicochemical; details: pH 7.8
Protocol: as §1
[c] The LC-MS determination in the neutral range is carried out at pH 7.8 using the mobile phases 0.001 molar aqueous ammonium bicarbonate solution and acetonitrile, linear gradient from 10% acetonitrile to 95% acetonitrile.

[4] = method [b], LC-MS, acidic range pH 2.7

Row | chromatographic logP [1] | Compound | log p ([1]; pH 2.7) | further results
1 | 2.41 | CCCC(C)Nc1nc(Nc2cccc(COC)c2)ncc1Cl (centres unmarked) [Example 143] | – | –
2 | 2.3 | CCC(CC)Nc1nc(Nc2cccc(COC)c2)ncc1Cl [Example 144] | – | pest or weed control at 500 ppm [2]: ≥ 70%
3 | 2.37 | CCC(C)CNc1nc(Nc2cccc(COC)c2)ncc1Cl (centres unmarked) [Example 145] | – | –
4 | 2.37 | COCc1cccc(Nc2ncc(Cl)c(NCCC(C)C)n2)c1 [Example 146] | – | –
5 | 2.41 | CCCCCNc1nc(Nc2cccc(COC)c2)ncc1Cl [Example 147] | – | –
6 | – | CCS(=O)(=O)C(C)c1cccc(Nc2ncc(Br)c(NC3CCC3)n2)c1 (centres unmarked) [Example 153] | 2.03[b] | –
7 | – | COCCOCCOc1ccc(Nc2ncc(C(F)(F)F)c(NC3CC3)n2)cc1Cl [Example 156] | 3.2[b] | –
8 | 2.14 | COCCOc1ccc(Nc2ncc(C(F)(F)F)c(NC3CC3)n2)cc1C [Example 157] | – | –
9 | 2.81 | CCCS(=O)(=O)c1cccc(Nc2ncc(Br)c(NC3CCC3)n2)c1 [Example 159] | – | pest or weed control at 500 ppm [2]: ≥ 70%
10 | – | CCCC(C)S(=O)(=O)C(C)c1cccc(Nc2ncc(C(F)(F)F)c(NC3CC3)n2)c1 (centres unmarked) [Example 168] | 3.47[b] | –
11 | – | COCCOCCOc1ccc(Nc2ncc(Cl)c(NC3CC3)n2)cc1Cl [Example 173] | 2.12[b] | –
12 | 1.43 | COCCOc1ccc(Nc2ncc(Cl)c(NC3CC3)n2)cc1C [Example 174] | – | –
13 | 3.72 | CCOCCOc1ccc(Nc2ncc(C(F)(F)F)c(NC3CC3)n2)cc1Cl [Example 184] | – | –
14 | 4.09 | CCOCCOc1ccc(Nc2ncc(C(F)(F)F)c(NC3CC3)n2)cc1C(F)(F)F [Example 186] | – | –
15 | – | CCSC(C)c1cccc(Nc2ncc(Cl)c(NC3CC3CC)n2)c1 (centres unmarked) [Example 196] | – | log p [1, 4]: 3.99[b]
16 | – | CCC1CC1Nc1nc(Nc2cccc(C(C)OC)c2)ncc1Cl (centres unmarked) [Example 197] | – | log p [1, 4]: 2.76[b]
17 | – | COCc1cccc(Nc2ncc(Br)c(NC3CC(C)C3)n2)c1 (centres unmarked) [Example 200] | – | log p [1, 4]: 2.55[b]
18 | – | COCc1cccc(Nc2ncc(Cl)c(NC3CC3C(F)(F)F)n2)c1 (centres unmarked) [Example 208] | 2.64[b] | –
19 | – | COCCOc1cccc(Nc2ncc(Cl)c(NC3CC3C(F)(F)F)n2)c1 (centres unmarked) [Example 210] | 2.66[b] | –
20 | – | COC(C)c1cccc(Nc2ncc(Br)c(NC3CC(C)C3)n2)c1 (centres unmarked) [Example 212] | – | log p [1, 4]: 2.84[b]

Row | chromatographic logP [1] | Compound | log p ([1]; pH 2.7) | further results
21 | – | COCC(C)Oc1ccc(Nc2ncc(Br)c(NC3CC(C)C3)n2)cc1 (centres unmarked) [Example 213] | 2.27[b] | –
22 | – | CCSC(C)c1cccc(Nc2ncc(Br)c(NC3CC(C)C3)n2)c1 (centres unmarked) [Example 214] | 3.85[b] | –
23 | – | COCCOC(c1cccc(Nc2ncc(C(F)(F)F)c(NCC3CC3)n2)c1)C(F)(F)F (centres unmarked) [Example 220] | – | log p [3]: 4.2[c]
24 | – | COCC(C)Oc1ccc(Nc2ncc(Cl)c(NC3CC3C(F)(F)F)n2)cc1 (centres unmarked) [Example 221] | 2.48[b] | –
25 | – | CS(=O)(=O)Cc1cccc(Nc2ncc(Cl)c(NC3CC3C(F)(F)F)n2)c1 (centres unmarked) [Example 222] | 1.96[b] | –
26 | – | CCSC(C)c1cccc(Nc2ncc(Cl)c(NC3CC3C(F)(F)F)n2)c1 (centres unmarked) [Example 223] | 3.93[b] | –
27 | – | FC(F)(F)COCc1cccc(Nc2ncc(Cl)c(NC3CC3)n2)c1 [Example 224] | 2.56[b] | –
28 | – | FC(F)(F)c1cnc(Nc2cccc(COc3ccc4c(c3)OCO4)c2)nc1NC1CC1 [Example 227] | 3.9[b] | –
29 | – | Clc1cnc(Nc2cccc(COc3ccc4c(c3)OCO4)c2)nc1NC1CC1 [Example 230] | – | log p [3]: 3.87[c]
30 | – | FC(F)C(F)(F)COCc1cccc(Nc2ncc(C(F)(F)F)c(NC3CC3)n2)c1 [Example 231] | 3.7[b] | –
31 | – | FC(F)C(F)(F)COCc1cccc(Nc2ncc(Cl)c(NC3CC3)n2)c1 [Example 232] | 2.69[b] | –
32 | – | CCOC(CSc1cccc(Nc2ncc(C(F)(F)F)c(NC3CC3)n2)c1)OCC [Example 236] | – | log p [3]: 4.55[c]
33 | – | COC(COCc1cccc(Nc2ncc(C(F)(F)F)c(NC3CC3)n2)c1)OC [Example 237] | – | log p [3]: 3.37[c]
34 | – | CCOC(COCc1cccc(Nc2ncc(C(F)(F)F)c(NC3CC3)n2)c1)OCC [Example 238] | – | chromatographic logP [3]: 4.09
35 | 2.72 | FC(F)(F)OCCOc1cccc(Nc2ncc(Cl)c(NC3CC3)n2)c1 [Example 241] | – | –
36 | 2.03 | CCOCCOCc1cccc(Nc2ncc(Cl)c(NC3CC3)n2)c1 [Example 248] | – | –
37 | 3.17 | CCOCCOCc1cccc(Nc2ncc(C(F)(F)F)c(NC3CC3)n2)c1 [Example 250] | – | –
38 | – | CCOCCOCc1cccc(Nc2ncc(Cl)c(NC3CC3)n2)c1 [Example 252] | 2.51[b] | –
39 | – | CCOCCOCc1cccc(Nc2ncc(C(F)(F)F)c(NC3CC3)n2)c1 [Example 253] | 2.73[b] | –
